Test results from ChEMBL document CHEMBL5352429, “Designed symmetrical β-hairpin peptides for treating multidrug-resistant salmonella typhimurium infections” (Eur J Med Chem, 2022).
In brackets after ≈: the same amount, converted by molar mass. Activity calls are given as the source filed them. No cut-off for these calls is given here. Peptide text beside a SMILES is read from it.

Tests used:
[1] = Antibacterial activity against Salmonella enterica subsp. enterica serovar Choleraesuis CICC 21493 incubated overnight by standard microtiter dilution method; assay type: functional
[2] = tested on: RAW264.7; test: Inhibition of LPS-stimulated TNF-alpha production in mouse RAW264.7 cells at 1 to 128 ug/ml incubated for 24 hrs by ELISA analysis; assay type: functional, cell-based; details: dose 1-128 µg/ml
[3] = tested on: Salmonella typhimurium; test: Antibacterial activity against Salmonella typhimurium DT104 in the presence of KCl by MH broth based assay; assay type: functional, Salmonella enterica subsp. enterica serovar Typhimurium; details: Salmonella enterica
[4] = Antibacterial activity against Salmonella enterica subsp. enterica serovar Choleraesuis ATCC 13312 incubated overnight by standard microtiter dilution method; assay type: functional
[5] = tested on: Salmonella typhimurium; test: Antibacterial activity against multi-drug resistant Salmonella typhimurium DT104 assessed as inhibition of bacterial growth at 0.5 to 2 times of MIC by MH agar based serial dilution method; assay type: functional, organism-based; details: Salmonella enterica subsp. enterica serovar Typhimurium, time <= 120.0 min, TDE = time-dependent effect
[6] = Antibacterial activity against Salmonella wandsworth CICC 21504 incubated overnight by standard microtiter dilution method; assay type: functional, Salmonella enterica subsp. enterica serovar Wandsworth; details: Salmonella enterica
[7] = tested on: Salmonella paratyphi; test: Antibacterial activity against Salmonella paratyphi A CICC 21501 incubated overnight by standard microtiter dilution method; assay type: functional, Salmonella enterica subsp. enterica serovar Paratyphi A; details: Salmonella enterica
[8] = tested on: Staphylococcus aureus; test: Antibacterial activity against Staphylococcus aureus ATCC 29213 incubated overnight by standard microtiter dilution method; assay type: functional
[9] = tested on: Salmonella enterica subsp. enterica serovar Paratyphi B; test: Antibacterial activity against Salmonella paratyphi B CICC 21495 incubated overnight by standard microtiter dilution method; assay type: functional
[10] = tested on: RAW264.7; test: Inhibition of LPS-stimulated NO production in mouse RAW264.7 cells incubated for 24 hrs by Griess reagent based analysis; assay type: functional, cell-based; details: dose 1-128 µg/ml
[11] = tested on: Salmonella typhimurium; test: Antibacterial activity against Salmonella typhimurium CICC 21913 incubated overnight by standard microtiter dilution method; assay type: functional, Salmonella enterica subsp. enterica serovar Typhimurium; details: Salmonella enterica
[12] = tested on: Salmonella typhimurium; test: Antibacterial activity against Salmonella typhimurium DT104 in the presence 50% inactivated mouse serum by MH broth based assay; assay type: functional, Salmonella enterica subsp. enterica serovar Typhimurium; details: Salmonella enterica
[13] = tested on: Salmonella typhimurium; test: Antibacterial activity against Salmonella typhimurium DT104 in the presence of NaCl by MH broth based assay; assay type: functional, Salmonella enterica subsp. enterica serovar Typhimurium; details: Salmonella enterica
[14] = tested on: Candida albicans; test: Antifungal activity against Candida albicans ATCC 10231 incubated overnight by standard microtiter dilution method; assay type: functional
[15] = tested on: Erythrocyte; test: Hemolytic activity in human Red blood cells assessed as hemolysis incubated for 1 hrs by absorbance based microplate reader analysis; assay type: toxicity, cell-based
[16] = tested on: Salmonella typhimurium; test: Antibacterial activity against Salmonella typhimurium DT104 ATCC 700408 incubated overnight by standard microtiter dilution method; assay type: functional, Salmonella enterica subsp. enterica serovar Typhimurium; details: Salmonella enterica
[17] = tested on: RAW264.7; test: Inhibition of LPS-stimulated IL-8 production in mouse RAW264.7 cells at 1 to 128 ug/ml incubated for 24 hrs by ELISA analysis; assay type: functional, cell-based; details: dose 1-128 µg/ml
[18] = tested on: Salmonella typhimurium; test: Antibacterial activity against Salmonella typhimurium DT104 in the presence of FeCl3 by MH broth based assay; assay type: functional, Salmonella enterica subsp. enterica serovar Typhimurium; details: Salmonella enterica
[19] = tested on: Salmonella typhimurium; test: Antibacterial activity against Salmonella typhimurium DT104 in the presence 25% inactivated mouse serum by MH broth based assay; assay type: functional, Salmonella enterica subsp. enterica serovar Typhimurium; details: Salmonella enterica
[20] = tested on: Salmonella typhimurium; test: Antibacterial activity against Salmonella typhimurium DT104 in the presence of CaCl2 by MH broth based assay; assay type: functional, Salmonella enterica subsp. enterica serovar Typhimurium; details: Salmonella enterica
[21] = tested on: Staphylococcus aureus; test: Antibacterial activity against methicillin-resistant Staphylococcus aureus ATCC 43300 incubated overnight by standard microtiter dilution method; assay type: functional
[22] = tested on: Salmonella typhimurium; test: Antibacterial activity against Salmonella typhimurium CICC 21483 incubated overnight by standard microtiter dilution method; assay type: functional, Salmonella enterica subsp. enterica serovar Typhimurium; details: Salmonella enterica
[23] = tested on: Escherichia coli; test: Antibacterial activity against Escherichia coli O157:H7 CICC 21530 incubated overnight by standard microtiter dilution method; assay type: functional
[24] = Antibacterial activity against Salmonella dublin CICC 21497 incubated overnight by standard microtiter dilution method; assay type: functional, Salmonella enterica subsp. enterica serovar Dublin; details: Salmonella enterica
[25] = tested on: Staphylococcus epidermidis; test: Antibacterial activity against methicillin-resistant Staphylococcus epidermidis ATCC 12228 incubated overnight by standard microtiter dilution method; assay type: functional
[26] = tested on: RAW264.7; test: Inhibition of LPS-stimulated IL-1beta production in mouse RAW264.7 cells at 1 to 128 ug/ml incubated for 24 hrs by ELISA analysis; assay type: functional, cell-based; details: dose 1-128 µg/ml
[27] = Hemolytic activity in human Red blood cells assessed as hemolysis at 128 ug/ml incubated for 1 hrs by absorbance based microplate reader analysis relative to control; assay type: toxicity, cell-based, Erythrocyte; details: red blood cells (erythrocytes), at 128 µg/mL, read-out: Activity
[28] = tested on: Enterococcus faecalis; test: Antibacterial activity against Enterococcus faecalis ATCC 29212 incubated overnight by standard microtiter dilution method; assay type: functional
[29] = Cytotoxicity against mouse RAW264.7 cells assessed as cell viability at 128 ug/ml incubated for 24 hrs by MTT assay; assay type: toxicity, cell-based; details: at 128 µg/mL, read-out: Activity
[30] = tested on: Salmonella typhimurium; test: Antibacterial activity against multi-drug resistant Salmonella typhimurium DT104 assessed as inhibition of bacterial growth measured upto 120 mins by MH agar based serial dilution method; assay type: functional, organism-based; details: Salmonella enterica subsp. enterica serovar Typhimurium
[31] = tested on: Lipopolysaccharide (LPS); test: Displacement of BODIPY-TR-cadaverine from Salmonella typhimurium LPS assessed as increase in fluorescence intensity by fluorescence spectrophotometric analysis; details: Salmonella enterica subsp. enterica serovar Typhimurium; dose 0.25-8 µg/ml
[32] = Antibacterial activity against Salmonella paratyphi C CICC 21512 incubated overnight by standard microtiter dilution method; assay type: functional, Salmonella enterica subsp. enterica serovar Paratyphi C; details: Salmonella enterica
[33] = tested on: Salmonella typhimurium; test: Antibacterial activity against Salmonella typhimurium DT104 in the presence of NH4Cl by MH broth based assay; assay type: functional, Salmonella enterica subsp. enterica serovar Typhimurium; details: Salmonella enterica
[34] = tested on: Salmonella typhimurium; test: Antibacterial activity against Salmonella typhimurium DT104 in the presence of MgCl2 by MH broth based assay; assay type: functional, Salmonella enterica subsp. enterica serovar Typhimurium; details: Salmonella enterica
[35] = tested on: Salmonella enteritidis; test: Antibacterial activity against Salmonella enteritidis CICC 21527 incubated overnight by standard microtiter dilution method; assay type: functional, Salmonella enterica subsp. enterica serovar Enteritidis; details: Salmonella enterica
[36] = tested on: Cell membrane; test: Disruption of membrane integrity in Salmonella typhimurium DT104 assessed as increase in fluorescence intensity at 0.5 to 2 times of MIC incubated for 15 mins by PI staining based flow cytometric analysis; assay type: subcellular; details: Salmonella enterica subsp. enterica serovar Typhimurium
[37] = Antibacterial activity against Salmonella blockley CICC 21489 incubated overnight by standard microtiter dilution method; assay type: functional, Salmonella enterica subsp. enterica serovar Blockley; details: Salmonella enterica
[38] = tested on: Salmonella typhimurium; test: Antibacterial activity against Salmonella typhimurium DT104 infected in mouse RAW264.7 cells assessed as reduction in bacterial cells at 1 times of MIC measured for 180 mins by MH agar based serial dilution method; assay type: functional, organism-based; details: Salmonella enterica subsp. enterica serovar Typhimurium

With `CC(C)C[C@H](NC(=O)[C@H](CCCCN)NC(=O)[C@H](CC(C)C)NC(=O)[C@H](CCCCN)NC(=O)[C@H](CC(C)C)NC(=O)[C@H](CCCCN)NC(=O)[C@H](CS)NC(=O)CNC(=O)[C@H](CO)NC(=O)[C@H](CCCCN)NC(=O)[C@@H](NC(=O)[C@H](CS)NC(=O)[C@H](CCCCN)NC(=O)[C@H](CC(C)C)NC(=O)[C@H](CCCCN)NC(=O)[C@H](CC(C)C)NC(=O)[C@H](CCCCN)NC(=O)[C@@H](N)CC(C)C)[C@@H](C)O)C(N)=O` (H-LKLKLKCTKSGCKLKLKL-NH2) the MIC [1] was 128 µg/mL (≈ 62.6 µM), the inhibition [2] was “Active” and the MIC [3] was > 128 µg/mL. For the same molecule, the MIC [4] was 4 µg/mL (≈ 1.96 µM), the Activity [5] was “Tde” and the MIC [6] was 128 µg/mL (≈ 62.6 µM). For the same molecule, the MIC [7] was > 128 µg/mL, the MIC [8] was > 128 µg/mL and the MIC [9] was 4 µg/mL (≈ 1.96 µM). The inhibition [10] was “Dose-Dependent Effect”, the MIC [11] was > 128 µg/mL and the MIC [12] was > 128 µg/mL. The MIC [13] was > 128 µg/mL, the MIC [14] was 128 µg/mL (≈ 62.6 µM) and the MHC [15] was 64 µg/mL. For the same molecule, the MIC [16] was 64 µg/mL (≈ 31.3 µM), the inhibition [17] was “Active” and the MIC [18] was > 128 µg/mL. The MIC [19] was > 128 µg/mL, the MIC [20] was > 128 µg/mL and the MIC [21] was > 128 µg/mL. The MIC [22] was 128 µg/mL (≈ 62.6 µM), the MIC [23] was 8 µg/mL (≈ 3.91 µM) and the MIC [24] was 32 µg/mL (≈ 15.6 µM). The MIC [25] was 32 µg/mL (≈ 15.6 µM), the inhibition [26] was “Active” and the hemolysis at 1 h, 128 ug/ml [27] was 16.4%. For the same molecule, the MIC [28] was 64 µg/mL (≈ 31.3 µM), the viability at 24 h, 128 ug/ml [29] was 14.2% and the Activity [30] was “Dose-Dependent Effect”. For the same molecule, the Activity [31] was “Dose-Dependent Effect”, the MIC [32] was 4 µg/mL (≈ 1.96 µM) and the MIC [33] was > 128 µg/mL. The MIC [34] was > 128 µg/mL, the MIC [35] was 64 µg/mL (≈ 31.3 µM) and the Activity [36] was “Active”. The MIC [37] was 128 µg/mL (≈ 62.6 µM).
With `CN[C@@H]1[C@H](O[C@H]2[C@H](O[C@H]3[C@H](O)[C@@H](O)[C@H](N=C(N)N)[C@@H](O)[C@@H]3N=C(N)N)O[C@@H](C)[C@]2(O)C=O)O[C@@H](CO)[C@H](O)[C@H]1O` [STREPTOMYCIN] the MIC [1] was 32 µg/mL (≈ 55 µM), the MIC [4] was 64 µg/mL (≈ 110 µM) and the MIC [6] was 2 µg/mL (≈ 3.44 µM). The MIC [7] was 32 µg/mL (≈ 55 µM), the MIC [8] was 4 µg/mL (≈ 6.88 µM) and the MIC [9] was 32 µg/mL (≈ 55 µM). It also gave an MIC [11] of 64 µg/mL (≈ 110 µM), an MIC [14] of 128 µg/mL (≈ 220 µM) and an MIC [16] of 128 µg/mL (≈ 220 µM). For the same molecule, the Activity [38] was “Active”, the MIC [21] was 8 µg/mL (≈ 13.8 µM) and the MIC [22] was 32 µg/mL (≈ 55 µM). It also gave an MIC [23] of 64 µg/mL (≈ 110 µM), an MIC [24] of 128 µg/mL (≈ 220 µM) and an MIC [25] of 0.25 µg/mL (≈ 0.43 µM). The MIC [28] was 64 µg/mL (≈ 110 µM), the MIC [32] was 64 µg/mL (≈ 110 µM) and the MIC [35] was 16 µg/mL (≈ 27.5 µM). The MIC [37] was > 128 µg/mL.
